# Experimental data from patent US20220073536A1 (Rigel Pharmaceuticals, Inc., priority 2003, published 2022).
# Structures can show the parent of a compound that is named as a salt.
# How the values were obtained:
# [1] = system: cultured human mast cells (CHMC); test: CHMC low cell density IgE activation: tryptase assay; format: cell-based; settings: IgE activation
# In short: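 CHMC were seeded at 1000–1500 cells/well in MT buffer and incubated 1 hr at 37 °C. They were then stimulated with anti-IgE for 30 min at 37 °C, with unstimulated wells as controls. Released tryptase in the supernatant was measured with a fluorogenic substrate after 30 min at room temperature.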
# [2] = system: cultured human mast cells (CHMC); test: CHMC low cell density ionomycin activation: tryptase assay; format: cell-based; settings: read-out: LD Tryptase, CHMC, Iono, 3 pt
# [3] = low cell density, 3 pt, read-out: LD Tryptase, CHMC, IgE, 3 pt
# [4] = low cell density CHMC, tryptase, 3 pt, read-out: LD Tryptase, CHMC, IgE, 3 pt
# [5] = low cell density CHMC, tryptase, 8 pt, read-out: LD Tryptase, CHMC, IgE, 8 pt
# [6] = low cell density CHMC, tryptase, 3 pt
# [7] = Homo sapiens, Mast cell, low cell density CHMC, tryptase release, 3 pt, read-out: LD Tryptase, CHMC, IgE, 3 pt
# [8] = Homo sapiens, Mast cell, low cell density CHMC, tryptase release, 8 pt, read-out: LD Tryptase, CHMC, IgE, 8 pt
# [9] = Homo sapiens, Mast cell, low cell density CHMC, tryptase release, 3 pt
# [10] = low cell density CHMC, tryptase release, 3 pt, read-out: LD Tryptase, CHMC, IgE, 3 pt
# [11] = low cell density CHMC, tryptase release, 8 pt, read-out: LD Tryptase, CHMC, IgE, 8 pt
# [12] = low cell density CHMC, tryptase release, 3 pt
Compound,"IC50 [1, 7] [µM]","IC50 [1, 8] [µM]","IC50 [2, 9] [µM]",other results
"2-Chloro-N4- (3,5-dichloro-4-methoxyphenyl-5-fluoro-N4-methyl-4-pyrimidineamine [Compound 491]",–,–,–,"IC50 [1, 3]: > 10 µM; IC50 ([2]; low cell density, 3 pt): > 10 µM"
2-Chloro-N4-[3-chloro-4- (N-methylamino)carbonylmethyleneoxyphenyl]-5-fluoro-N4-methyl-4-pyrimidineamine [Compound 661],–,–,–,"IC50 ([1]; low cell density CHMC, tryptase release, 3 point, read-out: LD Tryptase, CHMC, IgE, 3 pt): > 10 µM; IC50 ([2]; low cell density CHMC, tryptase release, 3 point): > 10 µM"
"5-Fluoro-N4- (4-hydroxy-3,4-dihydro-2H-1-benzopyran-6-yl)-N2-[4- (oxazol-5-yl)phenyl]-2,4-pyrimidinediamine [Compound 1290]",–,–,–,"IC50 [1, 4]: < 10 µM; IC50 [1, 5]: < 10 µM; IC50 [2, 6]: > 10 µM"
"NC1CCOc2ccc(Nc3nc(Nc4cccc(-c5cnco5)c4)ncc3F)cc21 (racemic) [Compound 1292, (R,S)-N4-[4-Amino-3,4-dihydro-2H-1-benzopyran-6-yl]-5-fluoro-N2-[3-(oxazol-5-yl)phenyl]-2,4-pyrimidinediamine]",–,–,–,"IC50 [1, 4]: < 10 µM; IC50 [1, 5]: < 10 µM; IC50 [2, 6]: > 10 µM"
"CNC(=O)CNC(=O)c1ccc(Nc2ncc(F)c(Nc3ccc4c(c3)C(NC(=O)OC(C)(C)C)CCO4)n2)cc1 (racemic) [Compound 1298, (R,S)-N4-[4-(N-tert-Butoxycarbonyl)amino-3,4-dihydro-2H-1-benzopyran-6-yl]-5-fluoro-N2-[4-[N-(N-methylamino)carbonylmethylene]aminocarbonylphenyl]-2,4-pyrimidinediamine]",–,–,–,"IC50 [1, 4]: < 10 µM; IC50 [2, 6]: > 10 µM"
COc1cc(C)c(Nc2ncc(F)c(Nc3ccc4c(c3)NC(=O)[C@H](C)O4)n2)cc1Cl [Compound 214],< 10,< 10,> 10,–
COc1cc(OC)c(-c2nc(N)nc(Nc3ccc4c(c3)NC(=O)[C@H](C)O4)c2F)cc1Cl [Compound 215],< 10,< 10,> 10,–
"COc1cc(C)c(Nc2ncc(F)c(Nc3ccc4c(c3)NC(C)(C)CO4)n2)cc1Cl [Compound 216, N2-(3-Chloro-4-methoxy-6-methylphenyl)-N4-(3,4-dihydro-3,3-dimethyl-2H,4H-benz[1,4]oxazin-6-yl)-5-fluoro-2,4-pyrimidinediamine]",–,–,–,"IC50 [1, 10]: < 10 µM; IC50 [1, 11]: < 10 µM; IC50 [2, 12]: > 10 µM"
"Fc1cnc(Nc2cccc(-c3ncco3)c2)nc1Nc1ccc2c(c1)NCCO2 [Compound 217, N4-(3,4-Dihydro-2H,4H-benz[1,4]oxazin-6-yl)-5-fluoro-N2-[3-(oxazol-2-yl)phenyl]-2,4-pyrimidinediamine]",–,–,–,"IC50 [1, 10]: < 10 µM; IC50 [1, 11]: < 10 µM; IC50 [2, 12]: > 10 µM"
"CC1(C)COc2ccc(Nc3nc(Nc4cccc(-c5ncco5)c4)ncc3F)cc2N1 [Compound 218, N4-(3,4-Dihydro-3,3-dimethyl-2H,4H-benz[1,4]oxazin-6-yl)-5-fluoro-N2-[3-(oxazol-2-yl)phenyl]-2,4-pyrimidinediamine]",–,–,–,"IC50 [1, 10]: < 10 µM; IC50 [1, 11]: < 10 µM; IC50 [2, 12]: > 10 µM"
O=C1COc2ccc(Nc3nc(Nc4cccc(-c5ncco5)c4)ncc3F)cc2N1 [Compound 219],< 10,< 10,> 10,–
O=C1COc2cc(Nc3nc(Nc4cccc(-c5ncco5)c4)ncc3F)ccc2N1 [Compound 220],< 10,< 10,> 10,–
O=C1Nc2cc(Nc3nc(Nc4cccc(-c5ncco5)c4)ncc3F)ccc2OC1CCO (stereo not shown) [Compound 221],< 10,< 10,> 10,–
"Fc1cnc(Nc2ccc(-c3cnco3)cc2)nc1Nc1ccc2c(c1)NCCO2 [Compound 222, N4-(3,4-Dihydro-2H,4H-Benz[1,4]oxazin-6-yl)-5-fluoro-N2-[4-(oxazol-5-yl)phenyl]-2,4-pyrimidinediamine]",–,–,–,"IC50 [1, 10]: < 10 µM; IC50 [1, 11]: < 10 µM; IC50 [2, 12]: > 10 µM"
"CC1(C)COc2ccc(Nc3nc(Nc4ccc(-c5cnco5)cc4)ncc3F)cc2N1 [Compound 223, N4-(3,4-Dihydro-3,3-dimethyl-2H,4H-benz[1,4]oxazin-6-yl)-5-fluoro-N2-[4-(oxazol-5-yl)phenyl]-2,4-pyrimidinediamine]",–,–,–,"IC50 [1, 10]: < 10 µM; IC50 [1, 11]: < 10 µM; IC50 [2, 12]: > 10 µM"
O=C1COc2ccc(Nc3nc(Nc4ccc(-c5cnco5)cc4)ncc3F)cc2N1 [Compound 224],< 10,< 10,> 10,–
C[C@@H]1Oc2ccc(Nc3nc(Nc4ccc(-c5cnco5)cc4)ncc3F)cc2NC1=O [Compound 225],–,–,–,"IC50 [1, 10]: < 10 µM; IC50 [1, 11]: < 10 µM; IC50 [2, 12]: > 10 µM"
O=C1COc2cc(Nc3nc(Nc4ccc(-c5cnco5)cc4)ncc3F)ccc2N1 [Compound 226],< 10,< 10,> 10,–
O=C1Nc2cc(Nc3nc(Nc4ccc(-c5cnco5)cc4)ncc3F)ccc2OC1CCO (stereo not shown) [Compound 227],< 10,< 10,> 10,–

Compound,"IC50 [1, 7] [µM]","IC50 [1, 8] [µM]","IC50 [2, 9] [µM]",other results
CN1CCOc2ccc(Nc3nc(Nc4ccc(-c5cnco5)cc4)ncc3F)cc21 [Compound 228],< 10,< 10,> 10,–
CN1CCOc2cc(Nc3nc(Nc4ccc(-c5cnco5)cc4)ncc3F)ccc21 [Compound 229],< 10,< 10,> 10,–
CN1C(=O)COc2cc(Nc3nc(Nc4ccc(-c5cnco5)cc4)ncc3F)ccc21 [Compound 230],> 10,> 10,> 10,–
CN1C(=O)COc2ccc(Nc3nc(Nc4ccc(-c5cnco5)cc4)ncc3F)cc21 [Compound 231],> 10,> 10,> 10,–
"Fc1cnc(Nc2cccc(-c3cnco3)c2)nc1Nc1ccc2c(c1)NCCO2 [Compound 232, N4-(3,4-Dihydro-2H,4H-benz[1,4]oxazin-6-yl)-5-fluoro-N2-[3-(oxazol-5-yl)phenyl]-2,4-pyrimidinediamine]",–,–,–,"IC50 [1, 10]: < 10 µM; IC50 [1, 11]: < 10 µM; IC50 [2, 12]: > 10 µM"
"CC1(C)COc2ccc(Nc3nc(Nc4cccc(-c5cnco5)c4)ncc3F)cc2N1 [Compound 233, N4-(3,4-Dihydro-3,3-dimethyl-2H,4H-benz[1,4]oxazin-6-yl)-5-fluoro-N2-[3-(oxazol-5-yl)phenyl]-2,4-pyrimidinediamine]",–,–,–,"IC50 [1, 10]: < 10 µM; IC50 [1, 11]: < 10 µM; IC50 [2, 12]: > 10 µM"
O=C1COc2cc(Nc3nc(Nc4cccc(-c5cnco5)c4)ncc3F)ccc2N1 [Compound 234],< 10,< 10,> 10,–
O=C1Nc2cc(Nc3nc(Nc4cccc(-c5cnco5)c4)ncc3F)ccc2OC1CCO (stereo not shown) [Compound 235],< 10,< 10,> 10,–
CN1CCOc2ccc(Nc3nc(Nc4cccc(-c5cnco5)c4)ncc3F)cc21 [Compound 236],< 10,–,> 10,–
CN1CCOc2cc(Nc3nc(Nc4cccc(-c5cnco5)c4)ncc3F)ccc21 [Compound 237],< 10,–,> 10,–
"CC1(C)COc2ccc(Nc3nc(Nc4ccc(-c5ncco5)cc4)ncc3F)cc2N1 [Compound 238, N4-(3,4-Dihydro-3,3-dimethyl-2H,4H-benz[1,4]oxazin-6-yl)-5-fluoro-N2-[4-(oxazol-2-yl)phenyl]-2,4-pyrimidinediamine]",–,–,–,"IC50 [1, 10]: < 10 µM; IC50 [1, 11]: < 10 µM; IC50 [2, 12]: > 10 µM"
O=C1COc2ccc(Nc3nc(Nc4ccc(-c5ncco5)cc4)ncc3F)cc2N1 [Compound 239],< 10,< 10,> 10,–
C[C@@H]1Oc2ccc(Nc3nc(Nc4ccc(-c5ncco5)cc4)ncc3F)cc2NC1=O [Compound 240],< 10,< 10,> 10,–
O=C1COc2cc(Nc3nc(Nc4ccc(-c5ncco5)cc4)ncc3F)ccc2N1 [Compound 241],> 10,–,> 10,–
O=C1Nc2cc(Nc3nc(Nc4ccc(-c5ncco5)cc4)ncc3F)ccc2OC1CCO (stereo not shown) [Compound 242],< 10,< 10,> 10,–
"CN1CCOc2ccc(Nc3nc(Nc4ccc(-c5ncco5)cc4)ncc3F)cc21 [Compound 243, N4-(2,3-Dihydro-4-methyl-2H-benz[1,4]oxazin-6-yl)-5-fluoro-N2-[4-(oxazol-2-yl)phenyl]-2,4-pyrimidinediamine]",–,–,–,"IC50 [1, 10]: < 10 µM; IC50 [1, 11]: < 10 µM; IC50 [2, 12]: > 10 µM"
"CNC(=O)COc1cccc(Nc2ncc(F)c(Nc3ccc4c(n3)NC(=O)C(C)(C)O4)n2)c1 [Compound 992, N4-(2,2-Dimethyl-3-oxo-4H-5-pyrid[1,4]oxazin-6-yl)-5-fluoro-N2-[3-(N-methylamino)carbonylmethyleneoxyphenyl]-2,4-pyrimidinediamine (+)-Camphorsulfonic Acid Salt]",–,–,–,"IC50 ([2]; low cell density, 3 pt): > 10 µM"
"N4-[3,4- (Difluoromethylenedioxy)phenyl]-N2- (3,5-dimethylphenyl)-5-fluoro-2,4-pyrimidinediamine [Compound 563]",–,–,–,"IC50 [1, 3]: < 10 µM; IC50 ([1]; low cell density, 8 pt, read-out: LD Tryptase, CHMC, IgE, 8 pt): < 10 µM"
N4-[benzoxathiazin-3 (4H)-one-6-yl]2-chloro-5-fluoro-4-pyrimidineamine [Compound 319],–,–,–,"IC50 [1, 10]: < 10 µM"
